{"source": "paper PMC6950750", "about": "“Newly Discovered Action of HpTx3 from Venom of Heteropoda venatoria on Nav1.7 and Its Pharmacological Implications in Analgesia” (Toxins, 2019)", "origin": "cited, not measured here", "test_system": "nociceptive neuron excitability", "details": "orofacial and other regions in patients; cited from earlier work", "description": "Kv4 channels are expressed predominately in the somata of small and large diameter nociceptors and the dorsal horn of the spinal cord, and all three Kv4 mRNA isoforms (Kv4.1–4.3) are expressed in whole DRG preparations. Overexpression of various components of the Kv4 complex attenuated DGR excitability and pain phenotypes of animals. The drugs that can increase A-type Kv ..."}
{"smiles": "O=C1[O][Pt]2([NH][C@@H]3CCCC[C@H]3[NH]2)[O]C1=O", "note": "[Oxaliplatin]", "values": [{"measurement": "effect on nociceptive neuron excitability", "value": "increases nociceptive neuron excitability to result in neuropathic pain"}]}
